Holding throughout (type): cell-based
The test system of one assay is VCaP cells. Briefly: VCaP cell proliferation assay (Cell Titer Glo), GI50. Conditions: Homo sapiens, VCaP cells, 0.1 nM R1881, read-out: GI50, Inhibition of VCaP Proliferation. On the procedure: 2. VCaP Cell Proliferation Assay.
VCaP cells are plated 7,500/well 200 μL/well in VCaP assay medium [Phenol red free RPMI (Gibco Cat #11835-030); 5% Charcoal Stripped (Dextran treated) FBS (Omega Scientific, Cat #FB-04); Pen/Strep Life Technologies (Gibco Cat #: 10378-016); 0.1 nM R1881 (Sigma, Cat #R0908) is added upon the start of the assay, not during initial plating of the cells).
The assay was performed as follows: the cells are grown for a minimum of 3 days to deplete androgens; dosing of PROTACs and R1881 is performed as for AR ELISA; the baseline reading of Cell Titer Glo can be performed on day of dosing.
VCaP cells with 0.1 nM R1881 will double once in 4 days. Gently draw off 110 μL of media so as not to disturb the adherent cells; add 110 μL of CTG; incubate with slow shaking for 20 minutes; and read luminescence on a plate reader.
Background: In ATP-based viability assays light output follows the ATP content of the culture.

Assay [1] addresses T1, Androgen Receptor (Homo sapiens, UniProt P10275).
T1 construct: endogenous in cells; host or cells: VCaP cells
T1 sequence (P10275 1-920): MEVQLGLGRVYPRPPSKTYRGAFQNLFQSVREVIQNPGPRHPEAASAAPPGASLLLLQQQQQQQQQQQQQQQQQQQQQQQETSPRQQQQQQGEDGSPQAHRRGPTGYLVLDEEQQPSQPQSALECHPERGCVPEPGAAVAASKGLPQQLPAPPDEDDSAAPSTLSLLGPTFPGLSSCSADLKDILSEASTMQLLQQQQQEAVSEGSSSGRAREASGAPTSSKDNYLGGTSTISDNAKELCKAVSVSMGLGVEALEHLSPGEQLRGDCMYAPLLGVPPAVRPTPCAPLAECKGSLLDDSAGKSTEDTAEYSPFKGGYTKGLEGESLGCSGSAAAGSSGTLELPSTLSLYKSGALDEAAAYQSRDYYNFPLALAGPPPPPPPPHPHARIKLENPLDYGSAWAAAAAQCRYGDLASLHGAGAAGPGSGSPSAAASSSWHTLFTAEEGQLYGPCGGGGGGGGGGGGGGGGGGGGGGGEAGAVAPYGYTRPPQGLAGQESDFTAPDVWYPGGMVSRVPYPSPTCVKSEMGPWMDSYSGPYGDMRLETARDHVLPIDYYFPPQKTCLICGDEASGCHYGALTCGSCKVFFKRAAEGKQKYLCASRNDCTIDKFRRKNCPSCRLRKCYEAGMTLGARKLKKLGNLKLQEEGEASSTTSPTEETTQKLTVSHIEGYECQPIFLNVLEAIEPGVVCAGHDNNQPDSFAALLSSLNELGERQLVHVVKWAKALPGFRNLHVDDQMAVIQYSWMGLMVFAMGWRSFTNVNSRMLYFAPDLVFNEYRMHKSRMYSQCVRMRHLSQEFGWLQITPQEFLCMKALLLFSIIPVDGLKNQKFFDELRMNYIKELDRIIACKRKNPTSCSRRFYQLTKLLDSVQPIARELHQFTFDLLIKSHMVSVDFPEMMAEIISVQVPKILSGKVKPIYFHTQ
Briefly: Androgen Receptor ELISA assay (PathScan AR ELISA) in VCaP cells: AR degradation, Dmax and DC50. The method in brief: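 VCaP cells, 30,000/well, grown ≥3 days in phenol red-free RPMI with 5% charcoal-stripped FBS; compound added in 0.1% DMSO with 0.1 nM R1881, 7 half-log doses, 24 h. Lysate AR quantified by PathScan sandwich ELISA, HRP/TMB read at 450 nm, giving DC50 and Dmax.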
Background: An ELISA detects its analyte on a solid surface through an enzyme-linked reagent.

In assay [2] the target is T2, Androgen Receptor (Homo sapiens, UniProt P10275+P40337, T878A).
T2 construct: Compounds have been evaluated in this assay in LNCaP and/or VCaP cells utilizing similar protocols; endogenous in cells; host or cells: LNCaP cells
T2 sequence (P10275 whole entry T878A): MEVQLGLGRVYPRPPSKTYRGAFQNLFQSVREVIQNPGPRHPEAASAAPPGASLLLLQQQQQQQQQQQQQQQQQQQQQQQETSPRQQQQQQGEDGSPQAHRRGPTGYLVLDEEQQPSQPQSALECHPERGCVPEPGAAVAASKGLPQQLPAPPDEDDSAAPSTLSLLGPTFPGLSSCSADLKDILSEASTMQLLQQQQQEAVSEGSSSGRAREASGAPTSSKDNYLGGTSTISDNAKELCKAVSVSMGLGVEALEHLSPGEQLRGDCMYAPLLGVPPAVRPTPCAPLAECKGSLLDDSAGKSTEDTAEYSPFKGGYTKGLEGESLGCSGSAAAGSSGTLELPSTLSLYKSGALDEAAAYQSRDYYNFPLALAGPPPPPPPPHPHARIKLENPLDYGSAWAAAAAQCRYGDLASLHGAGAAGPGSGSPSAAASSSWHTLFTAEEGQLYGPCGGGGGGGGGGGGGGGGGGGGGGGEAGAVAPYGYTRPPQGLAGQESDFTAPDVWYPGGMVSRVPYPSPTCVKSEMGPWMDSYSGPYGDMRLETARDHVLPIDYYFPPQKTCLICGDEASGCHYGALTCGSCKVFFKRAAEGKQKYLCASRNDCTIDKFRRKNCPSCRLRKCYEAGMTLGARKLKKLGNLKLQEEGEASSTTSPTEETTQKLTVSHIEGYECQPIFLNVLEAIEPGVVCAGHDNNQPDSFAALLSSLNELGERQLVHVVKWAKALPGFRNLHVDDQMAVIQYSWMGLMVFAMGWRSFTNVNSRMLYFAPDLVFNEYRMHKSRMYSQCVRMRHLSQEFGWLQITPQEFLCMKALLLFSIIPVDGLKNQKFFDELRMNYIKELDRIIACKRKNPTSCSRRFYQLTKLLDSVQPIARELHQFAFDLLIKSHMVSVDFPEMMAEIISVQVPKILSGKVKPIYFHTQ
T2 sequence (P40337 whole entry): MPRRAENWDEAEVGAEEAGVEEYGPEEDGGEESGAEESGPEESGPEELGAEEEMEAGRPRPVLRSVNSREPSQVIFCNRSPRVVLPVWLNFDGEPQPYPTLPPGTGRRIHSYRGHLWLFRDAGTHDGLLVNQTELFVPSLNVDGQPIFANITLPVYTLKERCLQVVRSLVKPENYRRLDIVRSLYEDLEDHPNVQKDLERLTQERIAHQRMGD
T2 sequence (Q15369 whole entry partner): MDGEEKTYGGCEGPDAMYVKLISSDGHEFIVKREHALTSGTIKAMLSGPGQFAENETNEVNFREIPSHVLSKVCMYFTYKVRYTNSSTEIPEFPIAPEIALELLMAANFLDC
T2 sequence (Q15370 whole entry partner): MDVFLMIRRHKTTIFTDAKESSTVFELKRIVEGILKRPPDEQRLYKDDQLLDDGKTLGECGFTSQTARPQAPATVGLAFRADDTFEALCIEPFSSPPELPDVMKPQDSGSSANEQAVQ
In words: Androgen Receptor ELISA assay (PathScan AR ELISA) in LNCaP cells: AR degradation, Dmax and DC50. To be noted: for DC50: concentration that caused 50% Androgen Receptor degradation; for Dmax: highest percentage of Androgen Receptor degradation.

The mark [3] stands for this setting: VCaP, highest percentage of Androgen Receptor degradation observed, VCaP cells (Table 32); read-out: VCaP Dmax (%).
Setting [4] is: concentration that caused 50% Androgen Receptor degradation, VCaP cells (Table 32); read-out: VCaP DC50.
Where [5] appears, read: read-out: VCaP DC50; VCaP cells; concentration that caused 50% Androgen Receptor degradation.

The structures appear in SMILES notation. Like-named read-outs stand apart in the source and are kept apart here. A value given as a limit tells only on which side of the number the result lay.

In the case of `CC1(C)[C@H](N)C(C)(C)[C@H]1Oc1ccc(C#N)c(Cl)c1` [ABM-26], the GI50 with VCaP cells (Table 38 (ABM)) was 51 to 250 nM.
The same measure, in the same setting: next, `CC1(C)[C@H](N)C(C)(C)[C@@H]1Oc1ccc(C#N)c(Cl)c1` [ABM-27]: not below 251 nM; `CC(C)(C)OC(=O)N[C@H]1C(C)(C)[C@H](Oc2ccc(C#N)c(Cl)c2)C1(C)C` [ABM-29]: 51 to 250 nM.
Still for that read-out and setting: for `CC1(C)[C@H](NC(=O)c2ccc(N)cc2)C(C)(C)[C@H]1Oc1ccc(C#N)c(Cl)c1` [ABM-30] the value was not above 50 nM; for `CC1(C)[C@H](NC(=O)c2cnc(N)cn2)C(C)(C)[C@H]1Oc1ccc(C#N)c(Cl)c1` [ABM-31], 51 to 250 nM; for `COc1ccc(C(=O)N[C@H]2C(C)(C)[C@H](Oc3ccc(C#N)c(Cl)c3)C2(C)C)cc1` [ABM-33], 51 to 250 nM.
`CC1(C)[C@H](NC(=O)c2cnn(CCO)c2)C(C)(C)[C@H]1Oc1ccc(C#N)c(Cl)c1` [ABM-34]: the GI50 in the assay on VCaP cells (Table 38 (ABM)) was not below 251 nM.
Same read-out and setting: for `CC1(C)[C@H](NC(=O)c2ccc(NCCCCCO)cc2)C(C)(C)[C@H]1Oc1ccc(C#N)c(Cl)c1` [ABM-36] the value was not above 50 nM; for `CC(C)(C)OC(=O)COCCCCCNc1ccc(C(=O)N[C@H]2C(C)(C)[C@H](Oc3ccc(C#N)c(Cl)c3)C2(C)C)cc1` [ABM-37], not above 50 nM.
As to `Cc1ncsc1-c1ccc(CNC(=O)[C@@H]2C[C@@H](O)CN2C(=O)[C@@H](NC(=O)COC[C@@H](O)CCOc2ccc(-c3ccc(N4C(=S)N(c5ccc(C#N)c(C(F)(F)F)c5)C(=O)C4(C)C)cc3)cc2)C(C)(C)C)cc1` [Example 131, (2S,4R)-1-[(2S)-2-{2-[(2S)-4-[4-(4-{3-[4-cyano-3-(trifluoromethyl)phenyl]-5,5-dimethyl-4-oxo-2-sulfanylideneimidazolidin-1-yl}phenyl)phenoxy]-2-hydroxybutoxy]acetamido}-3,3-dimethylbutanoyl]-4-hydroxy-N-{[4-(4-methyl-1,3-thiazol-5-yl)phenyl]methyl}pyrrolidine-2-carboxamide], on Androgen Receptor [1] (VCaP, read-out: VCaP Dmax (%)), the Dmax (as a rule, the largest share of the target that was removed) was more than 71%. Besides, the GI50 in the assay on VCaP cells (Table 37) lay in the range of 51 to 250 nM.
Take `Cc1cc(-c2ccc(N3C(=S)N(c4ccc(C#N)c(C(F)(F)F)c4)C(=O)C3(C)C)cc2)ccc1OCCCCOCC(=O)N[C@H](C(=O)N1C[C@H](O)C[C@H]1C(=O)NCc1ccc(-c2scnc2C)cc1)C(C)(C)C` [Example 134, (2S,4R)-1-[(2S)-2-(2-{4-[4-(4-{3-[4-cyano-3-(trifluoromethyl)phenyl]-5,5-dimethyl-4-oxo-2-sulfanylideneimidazolidin-1-yl}phenyl)-2-methylphenoxy]butoxy}acetamido)-3,3-dimethylbutanoyl]-4-hydroxy-N-{[4-(4-methyl-1,3-thiazol-5-yl)phenyl]methyl}pyrrolidine-2-carboxamide]: the Dmax on Androgen Receptor [1] (VCaP, read-out: VCaP Dmax (%)) is more than 71%. At Androgen Receptor [1] (read-out: VCaP DC50; concentration that caused 50% Androgen Receptor degradation, VCaP cells (Table 32)), the DC50 (as a rule, the concentration giving 50% degradation) was less than 50 nM. Moreover, the GI50 in the assay with VCaP cells (Table 37) was 51 to 250 nM.
Consider `Cc1ncoc1-c1ccc([C@H](C)NC(=O)[C@@H]2C[C@@H](O)CN2C(=O)[C@@H](NC(=O)COCCCCCOc2ccc(C(=O)N[C@H]3C(C)(C)[C@H](Oc4ccc(C#N)c(Cl)c4)C3(C)C)cc2)C(C)(C)C)cc1` [Example 156, (2S,4R)-1-[(2S)-3,3-dimethyl-2-(2-{[5-(4-{[trans--3-(3-chloro-4-cyanophenoxy)-2,2,4,4-tetramethylcyclobutyl]carbamoyl]phen-oxy)pentyl]oxy}acetamido)butanoyl]-4-hydroxy-N-[(1S)-1-[4-(4-methyl-1,3-oxazol-5-yl)phenyl]ethyl]pyrrolidine-2-carboxamide], for which, at Androgen Receptor [1] (setting [3]), the Dmax was more than 71%. In addition, the DC50 at Androgen Receptor [1] (setting [4]) is less than 50 nM. Besides, the GI50 with VCaP cells (Table 37) was not above 50 nM.
On to `Cc1ncsc1-c1ccc([C@H](C)NC(=O)[C@@H]2C[C@@H](O)CN2C(=O)[C@@H](NC(=O)COCCCCCOc2ccc(C(=O)N[C@H]3C(C)(C)[C@H](Oc4ccc(C#N)c(Cl)c4)C3(C)C)cc2)C(C)(C)C)cc1` [Example 157, (2S,4R)-1-[(2S)-3,3-dimethyl-2-(2-{[5-(4-{[trans-3-(3-chloro-4-cyanophenoxy)-2,2,4,4-tetramethylcyclobutyl]carbamoyl}phen-oxy)pentyl]oxy}acetamido)butanoyl]-4-hydroxy-N-[(1S)-1-[4-(4-methyl-1,3-thiazol-5-yl)phenyl]ethyl]pyrrolidine-2-carboxamide], for which the Dmax on Androgen Receptor [1] (setting [3]) was more than 71%. For the same molecule, the GI50 with VCaP cells (Table 37) was not above 50 nM.
Turning to `CC(C)(C)[C@H](NC(=O)COCCCCOc1ccc(C(=O)N[C@H]2C(C)(C)[C@H](Oc3ccc(C#N)c(Cl)c3)C2(C)C)cc1)C(=O)N1C[C@H](O)C[C@H]1C(=O)NCc1ccc(Cl)cc1` [Example 169, (2S,4R)-N-[(4-chlorophenyl)methyl]-1-[(2S)-3,3-dimethyl-2-{2-[4-(4-{[trans-3-(3-chloro-4-cyanophenoxy)-2,2,4,4-tetramethylcyclobutyl]carbamoyl}phenoxy)butoxy]acetamido}butanoyl]-4-hydroxypyrrolidine-2-carboxamide], the Dmax on Androgen Receptor [1] (setting [3]) was in the range of 51 to 70%. Further, the 50% degradation concentration (DC50) at Androgen Receptor [1] (setting [4]) is less than 50 nM. In the assay with VCaP cells (Table 37), the GI50 lay in the range of 51 to 250 nM.
As to `Cc1ncsc1-c1ccc(CNC(=O)[C@@H]2C[C@@H](O)CN2C(=O)[C@@H](NC(=O)CCc2ccc(OCCOc3ccc(N4C(=S)N(c5ccc(C#N)c(C(F)(F)F)c5)C(=O)C4(C)C)cc3)cc2)C(C)(C)C)cc1` [Example 303], the Dmax on Androgen Receptor [1] (VCaP, read-out: VCaP Dmax (%)) is 51 to 70%; on Androgen Receptor [2], more than 71%. Further, the DC50 on Androgen Receptor [1] (setting [5]) and at Androgen Receptor [2] was less than 50 nM throughout.
For `Cc1ncsc1-c1ccc(CNC(=O)[C@@H]2C[C@@H](O)CN2C(=O)[C@@H](NC(=O)CCOc2ccc(CCOc3ccc(N4C(=S)N(c5ccc(C#N)c(C(F)(F)F)c5)C(=O)C4(C)C)cc3)cc2)C(C)(C)C)cc1` [Example 306], on Androgen Receptor [1] (VCaP, read-out: VCaP Dmax (%)), the Dmax lay within 51 to 70%. On Androgen Receptor [2], this molecule had a DC50 of less than 50 nM and a Dmax of more than 71%.
Regarding `Cc1ncsc1-c1ccc(CNC(=O)[C@@H]2C[C@@H](O)CN2C(=O)[C@@H](NC(=O)COCCCOCCCOc2ccc(CN3C(=S)N(c4ccc(C#N)c(C(F)(F)F)c4)C(=O)C3(C)C)cc2)C(C)(C)C)cc1` [Example 307], the Dmax lay in the range of 51 to 70% on Androgen Receptor [1] (VCaP, read-out: VCaP Dmax (%)) and 51 to 70% on Androgen Receptor [2]. For the same molecule, the DC50 is less than 50 nM at Androgen Receptor [1] (setting [5]) and 51 to 500 nM on Androgen Receptor [2].
As to `Cc1ncsc1-c1ccc(CNC(=O)[C@@H]2C[C@@H](O)CN2C(=O)[C@@H](NC(=O)COCCCOCCCCOc2ccc(CN3C(=S)N(c4ccc(C#N)c(C(F)(F)F)c4)C(=O)C3(C)C)cc2)C(C)(C)C)cc1` [Example 308], the Dmax on Androgen Receptor [1] (VCaP, read-out: VCaP Dmax (%)) lay within 51 to 70%; at Androgen Receptor [2], 51 to 70%. For the same molecule, the DC50 at Androgen Receptor [1] (setting [5]) is less than 50 nM; at Androgen Receptor [2] it was 51 to 500 nM.
For the molecule `Cc1ncsc1-c1ccc(CNC(=O)[C@@H]2C[C@@H](O)CN2C(=O)[C@@H](NC(=O)CCCOCCN2CCC(c3ccc(N4C(=S)N(c5ccc(C#N)c(C(F)(F)F)c5)C(=O)C4(C)C)cc3)CC2)C(C)(C)C)cc1` [Example 309], the Dmax at Androgen Receptor [1] (VCaP, read-out: VCaP Dmax (%)) was in the range of 26 to 50%; at Androgen Receptor [2], 26 to 50%. The DC50 was less than 50 nM at Androgen Receptor [1] (setting [5]) and more than 501 nM at Androgen Receptor [2].
On to `Cc1ncsc1-c1ccc(CNC(=O)[C@@H]2C[C@@H](O)CN2C(=O)[C@@H](NC(=O)C(C)(C)C(O)CCCOCCCCCOc2ccc(N3C(=S)N(c4ccc(C#N)c(C(F)(F)F)c4)C(=O)C3(C)C)cc2)C(C)(C)C)cc1` (some centres unmarked) [Example 310], for which the Dmax on Androgen Receptor [1] (VCaP, read-out: VCaP Dmax (%)) was less than 25%. At Androgen Receptor [2], this molecule came in with a DC50 of more than 501 nM and a Dmax of 26 to 50%.
